According to patent publication US7807673B2, “2-pyrimidinyl pyrazolopyridine ErbB kinase inhibitors” (GlaxoSmithKline LLC, priority 2005, dated 2010):

Experiments:
ErbB2 or EGFR = target: T1, ErbB2 or EGFR; assay: ErbB enzyme substrate phosphorylation assay (HTRF), Method B (enzyme pre-incubated with compound 1 hour); assay type: biochemical; settings: Table 1, enzyme Method B: enzyme mix incubated with compound 1 hour at 20° C., reaction started with substrate mix; class over ErbB2 or EGFR
T1 construct: enzymes purified from a baculovirus expression system
Method in brief: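 Baculovirus-expressed kinase (0.8 nM EGFR or 10 nM ErbB2 in enzyme mix) phosphorylated biotinylated Peptide C (0.8 µM in substrate mix) with 20 µM ATP in substrate mix, MOPS pH 7.5, MnCl2, 90 min at 20 °C. Method A started with enzyme; Method B pre-incubated enzyme with compound 1 h at 20 °C. HTRF read-out; IC50 from 12-point curve (0.00027–47.6 µM), reported as pIC50.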

[1] = tested on: BT474 and HN5 tumor cell lines; assay: Methylene blue growth inhibition assay (cellular Method A); assay type: cell-based; settings: Homo sapiens, BT-474 and HN5, 72 h; Table 2, Method A methylene blue, 3 days; class over BT474 and HN5;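 note: class counts the more potent of the two cell lines (BT474 or HN5)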
Protocol: (§1) Human breast (BT474) and head and neck (HN5) were cultured in low glucose DMEM (Life Technologies 12320-032) containing 10% fetal bovine serum (FBS). Human colon tumor cells (Colo205) were cultured in DMEM (Invitrogen, 10564) containing 10% FBS. The SV40 transformed human mammary epithelial cell line to HB4a was transfected with either human H-ras cDNA (HB4a r4.2) or the human c-ErbB2 cDNA (HB4a c5.2). The HB4a clones were cultured in RPMI containing 10% FBS, insulin ([…]), hydrocortisone ([…]), supplemented with the selection agent hygromycin B ([…]). All lines were grown in a humidified incubator at 37° C. in 95% air, 5% CO2. Cells were harvested using trypsin/EDTA, counted using a haemocytometer, and plated in 100 microliters of the appropriate media, at the following densities, in a 96-well tissue culture plate (Falcon 3075): BT474 10,000 cells/well, HN5 3,000 cells/well. The next day, compounds were diluted in DMEM containing […] gentamicin, at twice the final required concentration, from 10 mM stock solutions in DMSO. 100 microliters/well of these dilutions were added to the 100 microliters of media currently on the cell plates. Medium containing 0.6% DMSO was added to control wells. Compounds diluted in DMEM were added to all cell lines. The final concentration of DMSO in all wells was 0.3%. Cells were returned to the incubator (37° C., […]) for 3 days. Medium was then removed by aspiration. Cell biomass was estimated by staining cells with 90 microliters per well methylene blue (Sigma M9140, 0.5% in 1:1 ethanol:water), and incubation at rt for at least 30 minutes. Stain was removed, and the plates rinsed by immersion in deionized water and air-dried. To release stain from the cells 100 microliters of solubilization solution was added (1% N-lauroyl sarcosine, Sodium salt, Sigma L5125, in PBS), and plates were shaken gently for about 30 minutes. Optical density at 620 nm was measured on a microplate reader. Percent inhibition of cell growth was calculated relative to vehicle treated control wells. Concentration of compound that inhibits 50% of control cell growth (IC50) was interpolated using nonlinear regression (Levenberg-Marquardt) and the equation, y=Vmax*(1−(x/(K+x)))+Y2, where “K” was equal to the IC50. Method B: Celltiter Glo® Growth Inhibition Assays

Colo205 tumor cell lines [2] = assay: as above; assay type: cell-based; settings: Homo sapiens, COLO 205, 72 h, Table 3, Method A methylene blue, 3 days
Protocol: as §1

[3] = tested on: BT474 and HN5 tumor cell lines; assay: Celltiter Glo growth inhibition assay (cellular Method B); assay type: cell-based; settings: Homo sapiens, BT-474, 72 h; Table 2, Method B Celltiter Glo, 3 days; class over BT474 and HN5;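 note: class counts the more potent of the two cell lines (BT474 or HN5)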
Method in brief: (§2)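 BT474, HN5 and Colo205 cells were each grown in their own 10% FBS medium, then exposed to compound for 3 days at 37 °C with 0.3% final DMSO. Growth was read by CellTiter-Glo luminescence as percent inhibition versus vehicle, and IC50 was interpolated by nonlinear regression.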

Colo205 tumor cell lines [4] = assay: as above; assay type: cell-based; settings: Homo sapiens, COLO 205, 72 h, Table 3, Method B Celltiter Glo, 3 days
Method in brief: as §2

Row | SMILES | Activity (Method) (ErbB2 or EGFR) | IC50 [1] [nM] | IC50 (Colo205 tumor cell lines [2]) [nM] | IC50 [3] [nM] | IC50 (Colo205 tumor cell lines [4]) [nM]
1 | O=C(Cc1cccs1)Nc1cccc(-c2nn3ccccc3c2-c2ccnc(Nc3cccc(OCCN4CCCC4)c3)n2)c1 [Example 10, N-[3-(3-{2-[(3-{[2-(1-Pyrrolidinyl)ethyl]oxy}phenyl)amino]-4-pyrimidinyl}pyrazolo[1,5-a]pyridin-2-yl)phenyl]-2-(2-thienyl)acetamide] | +++ (B) (at least one pIC50 measurement of greater than 7 against either ErbB2 or EGFR) | 100 to 1000 | 100 to 1000 | – | –
2 | O=C(Cc1cccs1)Nc1cccc(-c2nn3ccccc3c2-c2ccnc(Nc3cccc(OCCCN4CCCC4)c3)n2)c1 [Example 13, N-[3-(3-{2-[(3-{[3-(1-Pyrrolidinyl)propyl]oxy}phenyl)amino]-4-pyrimidinyl}pyrazolo[1,5-a]pyridin-2-yl)phenyl]-2-(2-thienyl)acetamide] | +++ (B) (at least one pIC50 measurement of greater than 7 against either ErbB2 or EGFR) | 100 to 1000 | 100 to 1000 | – | –
3 | CN(C)Cc1cccc(Nc2nccc(-c3c(-c4cccc(NC(=O)Cc5ccsc5)c4)nn4ccccc34)n2)c1 [Example 24, N-(3-{3-[2-({3-[(Dimethylamino)methyl]phenyl}-amino)-4-pyrimidinyl]pyrazolo[1,5-a]pyridin-2-yl}phenyl)-2-(3-thienyl)acetamide] | +++ (B) (at least one pIC50 measurement of greater than 7 against either ErbB2 or EGFR) | 100 to 1000 | 100 to 1000 | – | –
4 | CN(C)Cc1cccc(Nc2nccc(-c3c(-c4cccc(NC(=O)Cc5c(F)cccc5F)c4)nn4ccccc34)n2)c1 [Example 25, 2-(2,6-Difluorophenyl)-N-(3-{3-[2-({3-[(dimethylamino)methyl]-phenyl}amino)-4-pyrimidinyl]pyrazolo[1,5-a]pyridin-2-yl}phenyl)acetamide] | ++ (B) (at least one pIC50 measurement greater than 6 against either ErbB2 or EGFR but no measurement greater than pIC50 of 7) | > 1000 | 100 to 1000 | – | –
5 | O=C(Cc1cccs1)Nc1cccc(-c2nn3ccccc3c2-c2ccnc(Nc3cccc(-c4cnco4)c3)n2)c1 [Example 1, N-{3-[3-(2-{[3-(1,3-oxazol-5-yl)phenyl]amino}-4-pyrimidinyl)pyrazolo[1,5-a]pyridin-2-yl]phenyl}-2-(2-thienyl)acetamide] | +++ (B) (at least one pIC50 measurement of greater than 7 against either ErbB2 or EGFR) | 100 to 1000 | 100 to 1000 | – | –
6 | NC1CCc2ccc(Nc3nccc(-c4c(-c5cccc(NC(=O)Cc6cccs6)c5)nn5ccccc45)n3)cc2C1 (stereo not drawn) [Example 55, N-[3-(3-{2-[(7-Amino-5,6,7,8-tetrahydro-2-naphthalenyl)amino]-4-pyrimidinyl}pyrazolo[1,5-a]pyridin-2-yl)phenyl]-2-(2-thienyl)acetamide] | +++ (B) (at least one pIC50 measurement of greater than 7 against either ErbB2 or EGFR) | 100 to 1000 | 100 to 1000 | – | –
7 | CN(C)Cc1cccc(Nc2nccc(-c3c(-c4cccc(NC(=O)Cc5cccnc5)c4)nn4ccccc34)n2)c1 [Example 26, N-(3-{3-[2-({3-[(Dimethylamino)methyl]phenyl}amino)-4-pyrimidinyl]pyrazolo[1,5-a]pyridin-2-yl}phenyl)-2-(3-pyridinyl)acetamide] | ++ (B) (at least one pIC50 measurement greater than 6 against either ErbB2 or EGFR but no measurement greater than pIC50 of 7) | > 1000 | > 1000 | – | –
8 | O=C(Cc1cccs1)Nc1cccc(-c2nn3ccccc3c2-c2ccnc(Nc3cccc(F)c3)n2)c1 [Example 9, N-[3-(3-{2-[(3-Fluorophenyl)amino]-4-pyrimidinyl}pyrazolo[1,5-a]pyridin-2-yl)phenyl]-2-(2-thienyl)acetamide] | +++ (B) (at least one pIC50 measurement of greater than 7 against either ErbB2 or EGFR) | > 1000 | > 1000 | – | –
9 | O=C(Cc1cccs1)Nc1cccc(-c2nn3ccccc3c2-c2ccnc(Nc3cccc(OCCCN4CCOCC4)c3)n2)c1 [Example 11, N-[3-(3-{2-[3-{[3-(4-Morpholinyl)propyl]oxy}phenylamino]-4-pyrimidinyl}pyrazolo[1,5-a]pyridin-2-yl)phenyl]-2-(2-thienyl)acetamide] | +++ (B) (at least one pIC50 measurement of greater than 7 against either ErbB2 or EGFR) | 100 to 1000 | 100 to 1000 | – | –
10 | CCN(CC)CCOc1cccc(Nc2nccc(-c3c(-c4cccc(NC(=O)Cc5cccs5)c4)nn4ccccc34)n2)c1 [Example 14, N-[3-(3-{2-[(3-{[2-(Diethylamino)ethyl]oxy}phenyl)amino]-4-pyrimidinyl}pyrazolo[1,5-a]pyridin-2-yl)phenyl]-2-(2-thienyl)acetamide] | +++ (B) (at least one pIC50 measurement of greater than 7 against either ErbB2 or EGFR) | 100 to 1000 | 100 to 1000 | – | –
11 | Cc1sc(-c2ccccc2)nc1CC(=O)Nc1cccc(-c2nn3ccccc3c2-c2ccnc(Nc3cccc(CN(C)C)c3)n2)c1 [Example 29, N-(3-{3-[2-({3-[(Dimethylamino)methyl]phenyl}amino)-4-pyrimidinyl]pyrazolo[1,5-a]pyridin-2-yl}phenyl)-2-(5-methyl-2-phenyl-1,3-thiazol-4-yl)acetamide] | + (B) (no pIC50 measurement greater than 6 against either ErbB2 or EGFR) | > 1000 | > 1000 | – | –
12 | NC1Cc2ccc(Nc3nccc(-c4c(-c5cccc(NC(=O)Cc6cccs6)c5)nn5ccccc45)n3)cc2C1 (stereo not drawn) [Example 54, N-[3-(3-{2-[(2-Amino-2,3-dihydro-1H-inden-5-yl)amino]-4-pyrimidinyl}pyrazolo[1,5-a]pyridin-2-yl)phenyl]-2-(2-thienyl)acetamide] | +++ (B) (at least one pIC50 measurement of greater than 7 against either ErbB2 or EGFR) | < 100 | 100 to 1000 | – | –
13 | O=C(Cc1cccs1)Nc1cccc(-c2nn3ccccc3c2-c2ccnc(Nc3ccc(Cl)c(OCCN4CCCC4)c3)n2)c1 [Example 44, N-[3-(3-{2-[(4-chloro-3-{[2-(1-pyrrolidinyl)ethyl]oxy}phenyl)amino]-4-pyrimidinyl}pyrazolo[1,5-a]pyridin-2-yl)phenyl]-2-(2-thienyl)acetamide] | +++ (B) (at least one pIC50 measurement of greater than 7 against either ErbB2 or EGFR) | > 1000 | > 1000 | – | –
14 | CN(C)CCOc1cc(Nc2nccc(-c3c(-c4cccc(NC(=O)Cc5cccs5)c4)nn4ccccc34)n2)ccc1Cl [Example 45] | ++ (B) (at least one pIC50 measurement greater than 6 against either ErbB2 or EGFR but no measurement greater than pIC50 of 7) | > 1000 | > 1000 | – | –
15 | O=C(Cc1cccnc1)Nc1cccc(-c2nn3ccccc3c2-c2ccnc(Nc3cccc(-c4cnco4)c3)n2)c1 [Example 21, N-{3-[3-(2-{[3-(1,3-Oxazol-5-yl)phenyl]amino}-4-pyrimidinyl)pyrazolo[1,5-a]pyridin-2-yl]phenyl}-2-(3-pyridinyl)acetamide] | +++ (B) (at least one pIC50 measurement of greater than 7 against either ErbB2 or EGFR) | – | – | 100 to 1000 | > 1000
16 | COc1ccc(-c2nn3ccccc3c2-c2ccnc(Nc3ccc4c(c3)CN(C)CC4)n2)cc1NC(=O)Cc1cccs1 [Example 49, N-[2-Methoxy-5-(3-{2-[(2-methyl-1,2,3,4-tetrahydroisoquinolin-7-yl)amino]pyrimidin-4-yl}pyrazolo[1,5-a]pyridin-2-yl)phenyl]-2-(2-thienyl)acetamide] | + (B) (no pIC50 measurement greater than 6 against either ErbB2 or EGFR) | – | – | > 1000 | 100 to 1000
